Measurements published in patent US20190110476A1, “NOVEL ISOTHIAZOLAMIDES, PROCESSES FOR THEIR PREPARATION AND THEIR USE AS FUNGICIDES” (priority 2014, published 2019).
Marks after values point to notes of the source that are not given here.

Assay: Measurement of LogP values by HPLC on reversed phase columns (EEC directive 79/831 Annex V.A8)
Type: physicochemical
Conditions: not given
Procedure: The abbreviations and numerations of the substituent positions used in the context of the present invention and in the following Tables are explained in detail in the section Examples hereinafter. Also, the LogP values indicated in the following Tables are explained in detail in the section Examples hereinafter. In case LogP values for different diastereoisomers of a specific compound are […], said LogP values are […] by a “+”. […] Measurement of LogP values was performed according to EEC directive 79/831 Annex V.A8 by HPLC (High Performance Liquid Chromatography) on reversed phase columns with the following methods: […] Lambda-max-values were determined using UV-spectra from 200 nm to 400 nm and the peak values of the chromatographic signals
With `CCC1(C)CC(NC(=O)c2snc(N)c2Cl)CC(C)(C)C1` (stereo not drawn) [I-1535] the LogP was 4.01[a]. For `CCn1ncc(CNC(=O)c2snc(NCc3ccc(OC)cc3)c2Cl)c1C` [I-1237], the LogP was 2.59[a]. For `CC(C)CNC(=O)c1cc(N)ns1` [I-985], the LogP was 1.07[a]. With `Cc1c(N)nsc1C(=O)NCc1c(F)cccc1Cl` [I-587] the LogP was 1.61[a]. For `Nc1nsc(C(=O)N(Cc2c(F)cccc2Cl)C2CC2)c1Cl` [I-210], the LogP was 2.73[a]. With `CCn1ncc(CNC(=O)c2snc(NCc3ccc(OC)cc3)c2Cl)c1C(F)F` [I-1312] the LogP was 3.09[a]. For `Nc1nsc(C(=O)N2CCCc3ccc(C(F)(F)F)cc32)c1Cl` [II-018], the “LogP [a]” value was 2.78 and the “LogP [b]” value was 2.71. For `CCn1cc(CNC(=O)c2snc(NCc3ccc(OC)cc3)c2Cl)cn1` [I-1205], the LogP was 2.48[a]. For `CC(=O)Nc1nsc(C(=O)N[C@@H](C)C2CCCCC2)c1Cl` [I-097], the LogP was 2.51[a]. In the case of `CC(C)CN(C(=O)c1snc(N)c1Cl)C1CC1` [I-902], the LogP is reported as 2.25[a]. With `O=C(NCc1cc(F)ccc1F)c1snc(Cl)c1Cl` [E-II-011] the “LogP [a]” value was 3.17^[a]. With `CCCCC(=O)Nc1nsc(C(=O)NCC2CCCCC2)c1Cl` [I-450] the LogP was 3.20[c]. For `COc1ccc(CNc2nsc(C(=O)N(C3CC3)C3CCCCC3(C)C)c2Cl)cc1` (stereo not drawn) [I-860], the LogP was 5.31[a]. With `O=C(c1cc(N(Cc2ccccc2)Cc2ccccc2)ns1)N(Cc1cc(F)ccc1F)C1CC1` [I-991] the LogP was 5.25[a]. In the case of `COc1ccc(CNc2nsc(C(=O)N3CCc4c(Cl)ccc(Cl)c4C3)c2Cl)cc1` [II-068], the “LogP [a]” value is reported as 4.66 and the “LogP [b]” value is reported as 4.55. In the case of `C[C@H](NC(=O)c1snc(NC(=O)c2ccccc2)c1Cl)C1CCCCC1` [I-091], the LogP is reported as 3.64[a]. In the case of `Cc1nonc1NC(=O)c1snc(N)c1Cl` [I-1361], the LogP is reported as 1.27[a]. In the case of `COc1ccc(CNc2nsc(C(=O)N(Cc3cc(C)ccc3C)C3CC3)c2Cl)cc1` [I-876], the LogP is reported as 4.77[a]. With `Cc1c(N)nsc1C(=O)NCc1cc(F)c(F)c(F)c1` [I-584] the LogP was 1.92[a]. For `Nc1cc(C(=O)NCc2cc(Cl)cc(Cl)c2)sn1` [I-307], the LogP was 2.18[a]. For `Nc1nsc(C(=O)N(Cc2c(Cl)cccc2Cl)C2CC2)c1Cl` [I-208], the LogP was 3.02[a]. For `O=C(c1snc(Cl)c1Cl)N(Cc1ccc(F)cc1F)C1CC1` [E-II-014], the “LogP [a]” value was 4.01^[a]. For `CC(=O)N(C(C)=O)c1nsc(C(=O)NCc2ccccc2F)c1Cl` [I-101], the LogP was 2.64[a]. In the case of `O=C(NC1CCCC2CCCCC21)c1snc(N=CN2CCCC2)c1Cl` (stereo not drawn) [II-037], the “LogP [a]” value is reported as 3.83^[a]. For `COc1ccc(CNc2nsc(C(=O)NC3(c4ccccc4Br)CC3)c2Cl)cc1` [I-1322], the LogP was 4.40[a]. For `Cc1cccc(NC(=O)c2snc(N)c2Cl)c1` [I-915], the LogP was 2.28[a]. In the case of `COc1ccc(CNc2nsc(C(=O)NC(C)c3ccccn3)c2Cl)cc1` (stereo not drawn) [I-1197], the LogP is reported as 2.57[a]. For `O=C(NCc1ccc(Cl)cc1)c1snc(NC(=O)C(F)F)c1Cl` [I-574], the LogP was 2.51[a]. In the case of `CC(C)N(Cc1ccc(Cl)cc1Cl)C(=O)c1cc(N(Cc2ccccc2)Cc2ccccc2)ns1` [I-941], the LogP is reported as 6.48[a]. For `COc1ccc(CNc2nsc(C(=O)NCc3cnccn3)c2Cl)cc1` [I-1231], the LogP was 2.26[a]. For `COc1ccc(CNc2nsc(C(=O)NC(C)c3ccccc3Cl)c2Cl)cc1` (stereo not drawn) [I-112], the LogP was 4.16[a]. For `COc1ccc(CNc2nsc(C(=O)NC3(c4ccccc4Cl)CC3)c2Cl)cc1` [I-1327], the LogP was 4.24[a]. With `O=C(NCc1ccccc1F)c1snc(NCc2ccccc2)c1Cl` [I-069] the LogP was 3.56[a]. In the case of `Cc1cc(F)ccc1CNC(=O)c1snc(NC(=O)C(F)F)c1Cl` [I-809], the LogP is reported as 2.28[a]. With `Nc1nsc(C(=O)N(c2ccc(F)cc2)C2CC2)c1Cl` [I-917] the LogP was 2.21[a]. For `Nc1nsc(C(=O)NCC2CCCCO2)c1Cl` (stereo not drawn) [I-014], the LogP was 1.47[a]. With `COc1ccc(CNc2nsc(C(=O)NC(C)c3ccc(C(F)(F)F)cc3)c2Cl)cc1` (stereo not drawn) [I-1276] the LogP was 4.23[a]. With `COc1ccc(CNc2nsc(C(=O)NCc3ccc(Oc4ccc(F)cc4)cc3)c2Cl)cc1` [I-222] the LogP was 4.44[a]. For `CC(C)(C)OC(=O)Nc1nsc(C(=O)NCC2CCCCC2Cl)c1Cl` (stereo not drawn) [I-1578], the LogP was 3.52[a]. With `Nc1nsc(C(=O)N(Cc2ccc(Cl)cc2Cl)C2CCC2)c1Cl` [I-211] the LogP was 3.85[a]. In the case of `Cc1cccc(NC(=O)c2snc(N)c2Cl)c1C` [I-925], the LogP is reported as 2.27[a]. For `C[C@H](NC(=O)c1snc(N(Cc2ccccc2)Cc2ccccc2)c1C1CC1)C1CCCCC1` [I-264], the LogP was 6.20[a]. For `COc1ccc(CNc2nsc(C(N)=O)c2Cl)cc1` [II-106], the “LogP [a]” value was 1.94^[a]. In the case of `Nc1nsc(C(=O)NCc2cc(F)c(F)cc2F)c1Cl` [I-677], the LogP is reported as 2.03[a]. With `COc1ccc(CNc2nsc(C(=O)NC(C)c3ccsc3)c2Cl)cc1` (stereo not drawn) [I-1261] the LogP was 3.61[a]. In the case of `CCC1(CNC(=O)c2snc(N)c2Cl)CCCCC1` [I-836], the LogP is reported as 3.20[a]. In the case of `Nc1nsc(C(=O)NCc2ccc(Cl)cc2Cl)c1Cl` [I-018], the LogP is reported as 2.62[a]. With `COc1ccc(CNc2nsc(C(=O)NC3CCCCCC3)c2Cl)cc1` [I-1245] the LogP was 4.27[a]. With `COc1cc(F)ccc1CNC(=O)c1snc(NC(=O)C(F)(F)F)c1Cl` [I-819] the LogP was 2.72[a]. For `O=C(O)c1snc(N(Cc2ccccc2)Cc2ccccc2)c1Br` [E-VIII-004], the “LogP [a]” value was 3.83^[a]. With `Nc1nsc(C(=O)NCC2CCCCC2)c1C(F)F` [I-417] the LogP was 2.66[a]. In the case of `Nc1nsc(C(=O)NCC2CCOC2)c1Cl` (stereo not drawn) [I-011], the LogP is reported as 0.73[a]. For `O=C(c1cc(NCc2ccccc2)ns1)N(Cc1cc(Cl)ccc1Br)C1CC1` [I-1002], the LogP was 4.51[a]. With `CCC1CCCCC1NC(=O)c1snc(NCc2ccc(OC)cc2)c1Cl` (stereo not drawn) [I-1215] the LogP was 4.49[a]. With `COc1ccc(CNc2nsc(C(=O)NCCC3CCOC3)c2Cl)cc1` (stereo not drawn) [I-1196] the LogP was 2.59[a]. In the case of `O=C(c1cc(NCc2ccccc2)ns1)N(Cc1cc(Cl)ccc1F)C1CC1` [I-1000], the LogP is reported as 4.06[a]. With `CCC(=O)Nc1nsc(C(=O)NC(C)C2CCCCC2)c1Cl` (stereo not drawn) [I-601] the LogP was 2.82[a]. With `COc1ccc(CNc2nsc(C(=O)NCc3ccc(Cl)cc3C)c2Cl)cc1` [I-376] the LogP was 4.20[a]. For `Nc1nsc(C(=O)N(Cc2c(Cl)cccc2C(F)(F)F)C2CC2)c1Cl` [I-215], the LogP was 3.19[a]. In the case of `CCc1ccccc1CN(C(=O)c1snc(NCc2ccc(OC)cc2)c1Cl)C1CC1` [I-890], the LogP is reported as 4.74[a]. For `O=C(NC1CCCCC1)c1snc(N=C(c2ccccc2)c2ccccc2)c1Cl` [II-001], the “LogP [a]” value was 5.13^[a]. With `CCOc1c(N)nsc1C(=O)NCc1ccc(Cl)cc1` [I-731] the LogP was 2.26[a]. In the case of `O=C(NCC1CCC(C(=O)NC2CC2)CC1)c1snc(Cl)c1Cl` (stereo not drawn) [E-II-016], the “LogP [a]” value is reported as 2.21^[a]. For `COc1ccc(CNc2nsc(C(=O)N3CCc4cc(F)ccc4C3)c2Cl)cc1` [II-065], the “LogP [a]” value was 3.73^[a].

Same assay, conditions: HPLC LC-UV, acidic range, 0.1% formic acid in water and acetonitrile as eluent
`O=C(O)c1snc(N(Cc2ccccc2)Cc2ccccc2)c1C(F)F` [E-VIII-009, 3-(dibenzylamino)-4-(difluoromethyl)-1,2-thiazole-5-carboxylic acid] showed a chromatographic logP of 3.78. Work on `O=C(O)c1snc(N(Cc2ccccc2)Cc2ccccc2)c1C1CC1` [E-VIII-008, 4-cyclopropyl-3-(dibenzylamino)isothiazole-5-carboxylic acid] yielded a chromatographic logP of 4.11. With `CCOC(=O)c1cc(N(Cc2ccccc2)Cc2ccccc2)ns1` [E-VII-012, ethyl 3-(dibenzylamino)-1,2-thiazole-5-carboxylate] the chromatographic logP was 5.13.
